Experimental data published in patent publication US12533373B2, “β-glucan composition and use therefor” (Qingdao Conson Pharmaceutical Co., Ltd., priority 2019, dated 2026).
Several values for one entry are separate records, joined by “and”; a condition that tells them apart may be missing. Equal values may be shown once.

Columns and labels:
[1] = tested on: SW-480 human colon cancer transplanted tumors; experiment: nude mice transplanted tumor model, SW-480; type: in vivo, BALB/c nude mice; settings: 5-FU 18 mg/kg, tail vein, twice a week
Experimental: The […] was resuscitated with liquid nitrogen and cultured in 5A medium containing 10% fetal bovine serum; the cells were expanded and cultured in culture flasks and collected by digestion after reaching the required cells number; the cells were diluted using 5A medium containing 10% fetal bovine serum into suspensions of 250 million cell/ml which was inoculated subcutaneously to the axilla of the right forelimb of each mouse with 0.2 ml per mouse after routine sterilization. When growing to tumors to about 1 g of tissue mass, the animal was sacrificed and the tumor was cut into 2-3 cubic millimeter pieces and implanted subcutaneously into nude mice for passaging by catheter method, and two consecutive passages were performed. HT-29, SW-480, DLD-1 and RKO cell lines listed in the table were modeled and experimented using the same method. Waiting for the tumors of the passaged tumor-bearing nude mice grown to about 1 g, the tumors were transplanted for modeling via the method described above, and the animals were randomly grouped and administration was started on the next day after transplantation.
The animals were grouped using the random grouping method, 8 animals each group.
The route of administration is via tail vein injection, and the amount of administration for each animal was determined based on the latest body weight prior to administration. […]

[2] = tested on: S180 mouse fibrosarcoma cells; experiment: murine S180 sarcoma residual carcinoma model; type: in vivo, Kunming mice; settings: 5-FU 18 mg/kg
Experimental: S180 mouse fibrosarcoma cells were amplified by culturing in DMEM high sugar medium containing 10% FBS. The cells were ready for the next step when entering the logarithmic growth phase. The cells at logarithmic growth phase were collected by centrifugation and counted. The cell concentration was adjusted, and inoculated at 0.2 ml/mouse into the peritoneal cavity of Kunming mice as the first-generation breeder mouse. After rearing for one week, the ascites in peritoneal cavity of the first-generation breeder mouse were taken for centrifugation and count, the cell concentration was adjusted, and inoculated at 0.2 ml/mouse into the peritoneal cavity of Kunming mice as the second-generation breeder mouse, and after rearing for another week, the ascites in peritoneal cavity of the second-generation breeder mouse were taken for centrifugation and count, the cell concentration was adjusted, and inoculated at 0.2 ml/mouse into subcutaneous back of Kunming mice. The whole inoculation process was carried out aseptically in the ultra-clean workstation. After inoculation, the growth of mice was observed, and the mice were screened according to their growth state, and after screening, the mice were grouped randomly and administered.

[3] = tested on: Mouse lung cancer Lewis cells; experiment: mouse Lewis lung cancer residual cancer model; type: in vivo, C57BL/6 mice; settings: 5-FU 18 mg/kg
Experimental: Mouse lung cancer Lewis cells were amplified by culturing in DMEM high sugar medium containing 10% FBS. The cells were ready for the next step when entering the logarithmic growth phase. The cells at logarithmic growth phase were collected by centrifugation and counted. The cell concentration was adjusted and inoculated subcutaneously at 0.2 ml/mouse in the right axilla of C57BL/6 mice as breeder mouse. After grew to over 1000 mm^3, the tumors were removed aseptically, weighed, diluted by adding sodium chloride injection with mass to volume ratio of 1:4 and […], after conventional sterilization, inoculated subcutaneously to the axilla of the right forelimb of each mouse with 0.2 ml per mouse for passaging. After grew to over 1000 mm^3, the second generation tumors were taken aseptically, weighed, diluted by adding sodium chloride injection with mass to volume ratio of 1:4 and ground, and then inoculated subcutaneously to the back of mice at 0.2 ml per mouse after routine sterilization. The growths of mice were observed after inoculation, and screened according to the growth state of mice, and after screening, the mice were grouped randomly and administered.

SMILES: O=c1[nH]cc(F)c(=O)[nH]1 [Example 5-FU, Fluorouracil]
- Inhibition rate [1]: 57.91%
- Tumor weight [1]: 0.43 g
- Inhibition rate [2]: 85.30% and 66.85%
- Tumor weight [3]: 1.29 g and 1.24 g
